Experimental data as given in US20250115612A1, “CERTAIN 2,5-DIAZABICYCLO[4.2.0]OCTANES AND OCTAHYDROFURO[3,4-B]PYRAZINES AS GLP-1 RECEPTOR MODULATORS” (ASTRAZENECA AB, priority 2021, published 2025).

Key:
human GLP-1R receptor = target: T1, human GLP-1R receptor (Homo sapiens, UniProt P43220, L260F); experiment: CHOK1 GLP-1R cAMP assay (HTRF); format: cell-based; settings: CHO-K1 cells stably expressing human GLP-1R
T1 construct: expressed in transfected cells; host or cells: CHO-K1 (ATCC CCL-61)
Procedure: A cell line stably expressing the human GLP-1R receptor (NM_002062.5, including the naturally-occurring variant Leu260Phe) in a CHO-K1 (ATCC® CCL-61™) was used for assay.
GLP-1 receptor mediated agonist activity was determined in a cell-based assay measuring cyclic adenosine monophosphate (cAMP) levels in cells using Homogeneous Time-Resolved Fluorescence (HTRF) cAMP detection kit (CisBio catalog #62AM4PEC, cAMP Gs Dynamic range kit). The cAMP detection method is based on a competitive immunoassay, in which cAMP produced by the cells and cAMP labeled with the dye d2 compete for binding to a Europium-Cryptate-labeled anti-cAMP antibody. The specific HTRF signal is inversely proportional to the concentration of cAMP.
Compounds were added to individual well in 384 well-assay plates (Greiner #784076) using an Echo (LabCyte) dispenser from 10 mM stocks. Varying concentration of compounds were added to wells, and DMSO was used to normalize each well to a volume of 100 nL. A dose response curve of GLP-1(7-36)NH2 (Bachem H-6795) was included in each run. 5 μL of cAMP concentration response standards are applied in specified wells in the assay plates. Cryo-preserved cells are thawed and resuspended in assay buffer pre-heated to 37° C. (20 mM 2-[4-(2-hydroxyethyl)piperazin-1-yl]ethanesulfonic acid (HEPES) pH 7.4, lx Hank's Balanced Salt Solution (HBSS, Life Technologies #14065) supplemented with 0.1% (w/v) bovine serum albumin (Sigma, A-7030)). Cells were centrifuged at 250*g for 5 min at rt, and resuspended in room tempered assay buffer to a final density of 0.16*10^6 cell/mL, to deliver 800 cells/well. 5 μL of assay buffer with 1 mM 3-isobutyl-1-methylxanthin (IBMX; Sigma cat I-7018) was dispensed per well in assay plates using a multidrop combi (Thermo Scientific) subsequently 5 μL of cell suspension was distributed to relevant wells in the assay using a multidrop dispenser. Assay plates were incubated 20 min at rt.
Detection reagents, Europium-Cryptate-labeled anti-cAMP antibody and cAMP labeled with the dye d2, are diluted in lysis buffer, provided by the manufacturer. 5 μL of each detection reagent is supplemented to each assay well using a multidrop dispenser. Assay plates are incubated in the dark for at least one h. The HTRF signal is measured using the HTRF module (excitation: 337 nm, emission A: 665 nm and emission B: 620 nm) in Pherastar FSX (BMG Labtech).
Raw data were converted to pM cAMP using the cAMP standard curve included in each run. Converted data were further analyzed in Genedata Screener (Genedata) and EC50 determinations were made from agonist dose-response curves analyzed with a curve fitting program using a 4-parameter logistic dose response equation (Equation y=A+((B−A)/1+((C/x)^D))) where A is no stimulation, B is full stimulation, C is the EC50 and D is the Hill slope). The percent effect was determined relative to a saturating concentration of a full GLP-1R agonist (GLP-1(7-36)NH2 has 100% effect in this assay setup).

GLP-1R = target: T2, GLP-1R (Homo sapiens, UniProt P43220); experiment: EndoC cAMP accumulation assay (HTRF, EndoC-βH1 cells); format: cell-based; settings: EndoC-βH1 human pancreatic β cell line
T2 construct: host or cells: EndoC-βH1
Description: EndoC cAMP Accumulation Assay
A HTRF cAMP assay (cAMP Gs dynamic kit; CisoBio Cat #62AM4PEJ) was used to identify agonists of GLP-1R in a pancreatic insulinoma cell line (EndoC-PH1). […] EndoC-βH1 cells have detectable GLP-1R messenger ribonucleic acid (mRNA) as detected by quantitative polymerase chain reaction (qPCR). […] The EndoC-βH1 cell line is a valid model of human beta cells and applicable for screenings to identify novel drug target candidates (Mol. Metab., 2018, 8, 144-157). CisBio HTRF cAMP kits are based on a competitive immunoassay using cryptate-labelled anti-cAMP antibody and d2-labeled cAMP. The detection kit is intended for the direct quantitative determination of cAMP. The specific signal (i.e. energy transfer) is inversely proportional to the concentration of cAMP in the standard or sample. Test compounds (10 mM in DMSO) were diluted into assay buffer (HBSS (Sigma #H8264) supplemented with 25 mM HEPES (Gibco #15630, pH 7.4), 0.1% BSA (Sigma #A3059) and 0.5 mM IBMX (Sigma #I7018) included fresh on the day of the assay) into 96 well U-bottom plates (Greiner #650201). Diluted compounds were transferred to ECHO source polypropelene plates (Labcyte #P-05525) and dose response curves were dispensed acoustically using ECHO 550 into black shallow-well u-bottom 384-well HTRF Assay Plates (Corning 4514).
Cryovials of EndoC-H1 (supplied at 1×10e^7 cells/vial) were used directly for screening. The cryovials and were removed from N2(l) and thawed rapidly in a 37° C. water bath. The cells were resuspended in assay buffer and centrifuged at 300 g for 5 min. Cells were resuspended in assay buffer at the appropriate concentration, typically at 12e5 cells per mL (3000 cells per well, dependent on cell batch) and 2.5 μL diluted cells were added to all wells of destination plate by Multidrop combi reagent dispenser (Thermofisher). The plates were incubated at rt for 30 min. The assay was stopped by adding 2.5 μL anti-cAMP cryptate solution to all wells and 2.5 μL cAMP-d2 solution (both diluted 1:20 in lysis buffer) to columns 1-22 by Combi drop. A volume of 2.5 μL cAMP-d2 solution was added to wells E23 to P24 and 2.5 μL lysis buffer added to wells A23 to D24 by multichannel pipette. The plates were incubated at rt for 1 h and read on an Envision plate reader using excitation wavelength of 320 nm and emission of 590 nm and 660 nm.
Raw data from Envision is converted to % DeltaF according to the manufacturer's instructions. Dose response curves are analysed via 4-Parameter Logistical Analysis and assay plate Z′ values obtained. Samples are graphed as percentage (%) activation plots compared to GIP (1-42, Bachem H-5645) with assay window defined by negative control as basal cell cAMP levels and positive control are defined by maximum GIP (82.5 nM) signal. GLP-1 (7-36 amide, Bachem H-6795) dose response curve was included on all plates.

[1] = target: T3, human phosphodiesterase-3A (Homo sapiens, UniProt Q14432); experiment: PDE3 assay (formation of 5'AMP from cAMP, SPA); format: biochemical; settings: human recombinant enzyme expressed in Sf9 cells
T3 construct: host or cells: Sf9 (Spodoptera frugiperda)
Procedure: Evaluation of the effects of compounds on the activity of the human phosphodiesterase-3A is quantified by measuring the formation of 5′AMP from cAMP using a human recombinant enzyme expressed in a clonal isolate of Spodoptera frugiperda cells (Sf9) cells.
The test compound, reference compound or water (control) are added to a buffer containing 40 mM tris(hydroxymethyl)aminomethane (Tris)/HCl (pH 7.4) and 8 mM MgCl2, 450 nMcAMP and 0.25 μCi [3H]cAMP.
Thereafter, the reaction is initiated by addition of the enzyme (about 1 U) and the mixture is incubated for 20 min at 22° C.
For basal control measurements, the enzyme is omitted from the reaction mixture.
Following incubation SPA beads are added. After 30 min at 22° C. under shaking, the amount of [^3H]5′AMP is quantified with a scintillation counter (Topcount, Packard).
The results are expressed as a percent inhibition of the control enzyme activity. The standard inhibitory reference compound is milrinone (CAS number 78415-72-2), which is tested in each experiment at several concentrations to obtain an inhibition curve from which its IC50 value is calculated.

T2 sequence (P43220 24-463): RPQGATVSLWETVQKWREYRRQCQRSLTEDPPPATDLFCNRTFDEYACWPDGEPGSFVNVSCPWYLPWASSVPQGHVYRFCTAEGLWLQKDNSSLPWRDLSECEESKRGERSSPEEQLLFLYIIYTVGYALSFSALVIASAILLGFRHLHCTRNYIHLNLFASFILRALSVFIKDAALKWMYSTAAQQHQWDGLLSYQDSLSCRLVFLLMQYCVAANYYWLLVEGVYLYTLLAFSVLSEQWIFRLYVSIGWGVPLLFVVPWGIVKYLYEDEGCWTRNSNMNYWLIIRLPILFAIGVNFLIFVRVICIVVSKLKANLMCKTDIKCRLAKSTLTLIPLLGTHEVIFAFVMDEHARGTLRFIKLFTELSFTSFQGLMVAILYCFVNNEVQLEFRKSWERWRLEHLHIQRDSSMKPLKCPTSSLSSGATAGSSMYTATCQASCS
T3 sequence (Q14432 whole entry): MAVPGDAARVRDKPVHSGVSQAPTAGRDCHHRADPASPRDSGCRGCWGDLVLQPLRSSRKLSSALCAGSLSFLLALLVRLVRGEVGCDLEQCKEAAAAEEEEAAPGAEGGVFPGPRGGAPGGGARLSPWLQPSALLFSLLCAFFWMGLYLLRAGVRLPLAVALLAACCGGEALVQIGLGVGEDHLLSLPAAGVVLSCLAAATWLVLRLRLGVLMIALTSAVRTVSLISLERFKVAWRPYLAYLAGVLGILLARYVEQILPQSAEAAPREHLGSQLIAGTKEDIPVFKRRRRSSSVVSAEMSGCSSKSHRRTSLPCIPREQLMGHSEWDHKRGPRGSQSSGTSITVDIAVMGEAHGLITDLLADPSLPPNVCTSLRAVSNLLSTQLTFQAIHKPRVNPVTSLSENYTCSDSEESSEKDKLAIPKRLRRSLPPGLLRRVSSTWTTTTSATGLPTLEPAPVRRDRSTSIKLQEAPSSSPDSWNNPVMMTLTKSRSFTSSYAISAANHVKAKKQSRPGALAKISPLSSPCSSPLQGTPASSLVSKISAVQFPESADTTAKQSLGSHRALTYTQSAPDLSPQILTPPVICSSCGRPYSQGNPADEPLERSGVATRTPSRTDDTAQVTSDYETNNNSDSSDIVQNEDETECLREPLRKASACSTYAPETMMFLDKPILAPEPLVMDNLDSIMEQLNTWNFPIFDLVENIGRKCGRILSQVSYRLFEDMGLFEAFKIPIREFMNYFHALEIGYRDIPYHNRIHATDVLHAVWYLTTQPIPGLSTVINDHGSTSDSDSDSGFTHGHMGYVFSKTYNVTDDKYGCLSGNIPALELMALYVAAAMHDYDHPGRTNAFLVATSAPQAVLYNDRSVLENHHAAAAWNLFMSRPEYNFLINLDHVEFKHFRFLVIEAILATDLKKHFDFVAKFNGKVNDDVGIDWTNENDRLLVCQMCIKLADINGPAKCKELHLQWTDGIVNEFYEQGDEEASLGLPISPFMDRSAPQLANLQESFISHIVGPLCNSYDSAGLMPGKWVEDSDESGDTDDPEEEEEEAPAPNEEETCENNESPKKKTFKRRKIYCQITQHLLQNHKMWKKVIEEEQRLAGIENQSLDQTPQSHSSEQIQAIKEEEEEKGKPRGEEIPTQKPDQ
T1 sequence (P43220 24-463 L260F): as the sequence (P43220 24-463) above, with L237F counted along it

| Structure (SMILES) | EC50 (human GLP-1R receptor) | EC50 (GLP-1R) | IC50 [1] |
| --- | --- | --- | --- |
| COc1cc(C(=O)O)cc2c1nc(CN1CCN(c3cccc(OCc4ccc(Cl)cc4F)n3)[C@@H]3COC[C@@H]31)n2C[C@@H]1CCO1 (single isomer, unassigned) [Example 16a, 2-(((4aR*,7aS*)-4-(6-((4-Chloro-2-fluorobenzyl)oxy)pyridin-2-yl)hexahydrofuro[3,4-b]pyrazin-1(2H)-yl)methyl)-4-methoxy-1-(((S)-oxetan-2-yl)methyl)-1H-benzo[d]imidazole-6-carboxylic acid] | 0.63 nM | 1.9 nM | 29000 nM |
| N#Cc1ccc(COc2cccc(N3CCN(Cc4nc5c(Cl)cc(C(=O)O)cc5n4C[C@@H]4CCO4)[C@H]4CC[C@H]43)n2)c(F)c1 (single isomer, unassigned) [Example 6d] | 3.5 nM | 2.4 nM | 3000 nM |
| O=C(O)c1cc(F)c2nc(CN3CCN(c4cccc(OCc5ccc(Cl)cc5F)n4)[C@@H]4COC[C@@H]43)n(C[C@@H]3CCO3)c2c1 (single isomer, unassigned) [Example 19a, 2-(((4aR*,7aS*)-4-(6-((4-Chloro-2-fluorobenzyl)oxy)pyridin-2-yl)hexahydrofuro[3,4-b]pyrazin-1(2H)-yl)methyl)-4-fluoro-1-(((S)-oxetan-2-yl)methyl)-1H-benzo[d]imidazole-6-carboxylic acid] | 1.5 nM | 4 nM | 22000 nM |
| N#Cc1ccc(COc2cccc(N3CCN(Cc4nc5c(Cl)cc(C(=O)O)cc5n4C[C@@H]4CCO4)[C@H]4CC[C@H]43)n2)c(F)c1 (single isomer, unassigned) [Example 6a] | 0.6 nM | 1.9 nM | 2900 nM |
| COc1cc(C(=O)O)cc2c1nc(CN1CCN(c3cccc(OCc4ccc(C#N)cc4F)n3)[C@H]3CC[C@@H]31)n2C[C@@H]1CCO1 (single isomer, unassigned) [Example 4b, 2-(((1R*,6R*)-5-(6-((4-Cyano-2-fluorobenzyl)oxy)pyridin-2-yl)-2,5-diazabicyclo[4.2.0]octan-2-yl)methyl)-4-methoxy-1-(((S)-oxetan-2-yl)methyl)-1H-benzo[d]imidazole-6-carboxylic acid] | 0.6 nM | 3 nM | 6500 nM |
| COc1cc(C(=O)O)cc2c1nc(CN1CCN(c3cccc(OCc4ccc(C#N)cc4F)n3)[C@H]3CC[C@@H]31)n2C[C@@H]1CCO1 (single isomer, unassigned) [Example 4a, 2-(((1R*,6R*)-5-(6-((4-Cyano-2-fluorobenzyl)oxy)pyridin-2-yl)-2,5-diazabicyclo[4.2.0]octan-2-yl)methyl)-4-methoxy-1-(((S)-oxetan-2-yl)methyl)-1H-benzo[d]imidazole-6-carboxylic acid] | 4 nM | 5.5 nM | 3800 nM |

The remaining lines, values ahead:

| EC50 (human GLP-1R receptor) | EC50 (GLP-1R) | IC50 [1] | Structure (SMILES) |
| --- | --- | --- | --- |
| 2 nM | 14 nM | 3500 nM | N#Cc1ccc(COc2cccc(N3CCN(Cc4nc5ccc(C(=O)O)cc5n4C[C@@H]4CCO4)[C@H]4COC[C@H]43)n2)c(F)c1 (racemic) [Example 17, 2-(((4aRS,7aSR)-4-(6-((4-Cyano-2-fluorobenzyl)oxy)pyridin-2-yl)hexahydrofuro[3,4-b]pyrazin-1(2H)-yl)methyl)-1-(((S)-oxetan-2-yl)methyl)-1H-benzo[d]imidazole-6-carboxylic acid] |
| – | – | 11000 nM | N#Cc1ccc(COc2cccc(C3CCN(Cc4nc5ccc(C(=O)O)cc5n4C[C@@H]4CCO4)CC3)n2)c(F)c1 [Ref Comp B, reference compound] |
| 1.1 nM | 8.7 nM | 11000 nM | N#Cc1ccc(COc2cccc(N3CCN(Cc4nc5c(F)cc(C(=O)O)cc5n4C[C@@H]4CCO4)[C@H]4CC[C@@H]43)n2)c(F)c1 (single isomer, unassigned) [Example 3b, 2-(((1R*,6R*)-5-(6-((4-Cyano-2-fluorobenzyl)oxy)pyridin-2-yl)-2,5-diazabicyclo[4.2.0]octan-2-yl)methyl)-4-fluoro-1-(((S)-oxetan-2-yl)methyl)-1H-benzo[d]imidazole-6-carboxylic acid] |
| 8.1 nM | 5.6 nM | 2500 nM | N#Cc1ccc(COc2cccc(N3CCN(Cc4nc5c(Cl)cc(C(=O)O)cc5n4C[C@@H]4CCO4)[C@H]4CC[C@H]43)n2)c(F)c1 (single isomer, unassigned) [Example 6c] |
| 2.1 nM | 27 nM | 4600 nM | N#Cc1ccc(COc2cccc(N3CCN(Cc4nc5cc(F)c(C(=O)O)cc5n4C[C@@H]4CCO4)[C@H]4CC[C@@H]43)n2)c(F)c1 (single isomer, unassigned) [Example 9b] |
| 9.4 nM | 7.2 nM | 2200 nM | N#Cc1ccc(COc2cccc(N3CCN(Cc4nc5cc(Cl)c(C(=O)O)cc5n4C[C@@H]4CCO4)[C@H]4CC[C@H]43)n2)c(F)c1 (single isomer, unassigned) [Example 7a] |
